Source: article PMC7618036, “An oral heme oxygenase inhibitor targets immunosuppressive perivascular macrophages in preclinical models of cancer” (Science translational medicine, 2025)

Key:
[1] = test system: MMTV-PyMT mice; test: Toxicity evaluation of MMTV-PyMT mice after 21 days of treatment; assay type: in vivo, mouse; details: KCL-HO-1i p.o. and/or gemcitabine i.p.
Description: (D-G) The MMTV-PyMT mice in (B) were evaluated for evidence of toxicity, including weight change from treatment initiation (D), end of treatment (day 21) plasma ratio of AST:ALT enzymes (E), blood circulating immune cells assessed using flow cytometry (F) and pathology assessment of inflammatory cell infiltrate in the lungs alongside an additional cohort or WT non-tumor bearing mice given dual treatment for 21 days and then assessed at treatment cessation or 30 days after treatment cessation (G). Image in panel (A) was created using BioRender. Bar charts show the mean, error bars SD, and the dots show individual data points from individual tumors and mice. Line charts display the mean and SEM. Gemc.; gemcitabine. * P<0.05, ** P<0.01.
Tissue sections (3µm) were cut from FFPE tissues from the brain, lung, heart, kidney, and liver of treated animals and mounted onto Plus^+ Frost slides (Solmedia). […] Tissue sections were initially examined unblinded and then re-evaluated blinded to confirm the significant findings ([77]). Findings in the tissue were scored using a non-linear semiquantitative grading system from 0 to 5 where 0 = no significant change and 5 = whole organ or tissue affected ([78]). Where grading was not appropriate, findings were scored ‘present’ (P) if seen. In addition, an approximate number of lung metastases was recorded in parentheses after P if present ([78]). […]

[2] = set-up: method as in PMID 19581737, PMID 22993376; details: cited from earlier work
[3] = In vivo PK study in male ICR mice; details: mouse, 25 umol/kg
From the text: (A) Chemical structure of KCL-HO-1i. […] (G-I) Schematic depicting the transgene of the HO-1 reporter mice (HO-1^Luc/eGFP) (upper panel) and the experimental outline (below) (G). […] Whole mouse total photon flux at each timepoint and condition was quantitated (H). Heat map displaying luciferase expression across the indicated dissected tissues (left panel) and their percentage change relative to vehicle treated animals (right panel) (I) (cohorts of n=6 mice). Images in panel (D) and (G) were created using BioRender. Bar charts show the mean, error bars SD, and the dots show individual data points from individual mice. Line charts display the mean and SEM. * P<0.05, ** P<0.01, **** P<0.0001.
Pharmacokinetics studies were performed by Pharmacology Discovery Services (PDS) Taiwan, Ltd. as a contract research organization. A single dose of 25 µMol/Kg was administered to male ICR mice via the indicated route and blood aliquots (∼300 μL) were obtained via cardiac puncture from euthanised mice using tubes coated with lithium heparin at the indicated times. Blood samples were then gently mixed and centrifuged at 2,500 x g for 15 min at 4 °C within an hour of collection. Subsequently, the plasma samples were harvested and stored frozen at -70°C until further processing. The plasma samples underwent methanol (MeOH) precipitation and were analysed using LC-MS/MS. An Agilent Poroshell 120 EC-C18 column with dimensions of 2.7 μm (3.0 x 50 mm) was utilized for chromatographic separation. The mobile phase consisted of 0.2 % formic acid (FA) in water (solvent A) and 0.2 % FA in acetonitrile (ACN; solvent B), with a gradient from 10 % to 80 % (solvent B) over a 2.5-min period at a flow rate of 0.5 mL/min with a sample injection volume of 5 µL. The bioanalytical method involved utilizing mouse plasma as the sample matrix and 20 μL of sample into a well of a 96-well plate. Subsequently, 300 μL of 0.01 ng/μL oxybutynin internal standard (IS) in MeOH was added to each well, excluding double blank (00) and carryover. For the double blank well and carryover, 300 μL of MeOH was added. After vortexing for 1 min and centrifuging at 1000 x g for 5 min, 200 μL of supernatant was taken and mixed with 300 μL of MeOH/water (50/50) for LC-MS/MS analysis. Finally, the exposure levels (ng/mL) of KCL-HO1i in plasma samples were determined using LC-MS/MS.

Compound | immune cell composition of the blood [1] | patients with pulmonary inflammation [2] | maximum serum concentration (Cmax) ([3]; ip) [µg/mL] | serum half-life (T1/2) ([3]; ip) [h] | time to maximum serum concentration (Tmax) ([3]; ip) [h] | oral bioavailability ([3]; po)
Nc1ccn([C@@H]2O[C@H](CO)[C@@H](O)C2(F)F)c(=O)n1 [gemcitabine] | unaffected | approximately 23% |  |  |  | 
Sn (IV) mesoporphyrin IX dichloride [SnMP] |  |  | 68 ± 19 | 4 | 1 | not orally bioavailable
